# According to patent US20240016777A1, “COMPOUNDS AND METHODS FOR TREATING VIRAL INFECTIONS” (priority 2020, published 2024):
# Biological target: SARS-CoV-2 M^pro (Severe acute respiratory syndrome coronavirus 2 (2019-nCoV) (SARS-CoV-2), UniProt P0DTD1)
# Assay: biochemical
# Settings: compound at 17 μM, duplicates, 20 min pre-incubation
row,Compound,Activity (% enzyme activity by fluorescence relative to initial enzyme activity)
1,O=c1cc(-c2ccc(O)cc2)oc2c([C@@H]3O[C@H](CO)[C@@H](O)[C@H](O)[C@H]3O)c(O)c([C@@H]3OC[C@H](O)[C@H](O)[C@H]3O)c(O)c12 [Isoschaftoside],++ (enzyme activity as indicated by fluorescence measurements ≥10% and <80%)
2,C=C(C)[C@H](CC=C(C)C)Cc1c(O)cc(O)c2c1O[C@H](c1ccc(O)cc1OC)CC2=O [Leachianone A],+ (≥80% enzyme activity as indicated by fluorescence measurements)

# Same assay, conditions: compound at 17 μM, duplicates, 20 min pre-incubation; read-out: Activity (% enzyme activity by fluorescence relative to initial enzyme activity)
row,Compound,remaining activity at 17 µM [%]
1,CC(C)=CCc1c(O)cc(O)c2c(=O)cc(-c3ccc(O)cc3)oc12 [Licoflavone C],> 80
2,C=C(C)C(CC=C(C)C)Cc1c(O)cc(O)c2c(=O)c(O)c(-c3ccc(O)cc3)oc12 (stereo not shown) [8-Lavandulylkaempferol],10 to 80

# Same assay, conditions: compounds evaluated at 0.015-300 μM; read-out: IC50
row,Compound,IC50 [µM]
1,O=c1cc(-c2ccc(O)cc2)oc2c([C@@H]3O[C@H](CO)[C@@H](O)[C@H](O)[C@H]3O)c(O)c([C@@H]3OC[C@H](O)[C@H](O)[C@H]3O)c(O)c12 [Isoschaftoside],20

# Same assay, conditions: read-out: Activity (% enzyme activity by fluorescence relative to initial enzyme activity), compound at 17 μM, duplicates, 20 min pre-incubation
row,Compound,remaining activity at 17 µM [%]
1,COc1ccc(-c2oc3c(CC=C(C)C)c(O)cc(O)c3c(=O)c2O[C@@H]2O[C@@H](C)[C@H](O)[C@@H](O)[C@H]2O[C@@H]2OC[C@@H](O)[C@H](O)[C@H]2O)cc1 [Sagittatoside B],> 80
2,CC(C)=CCc1c(O)ccc([C@H]2COc3cc(O)cc(O)c3C2=O)c1O [Dihydrolicoisoflavone],> 80
3,CC(C)=CCc1c(O)cc(O)c2c(=O)cc(-c3cc(O)c4c(c3)C(O)C(C(C)(C)O)O4)oc12 (stereo not shown) [Epimedokoreanin C],> 80
4,"CC(C)=CCc1cc(-c2cc(=O)c3c(O)cc(O)c(CC=C(C)C)c3o2)ccc1O [8,3′-Diprenylapigenin]",< 10
5,CC(C)=CCc1cc([C@@H]2CCc3ccc(O)cc3O2)c(CC=C(C)C)c(O)c1O [Kazinol A],> 80
6,O=C1CC(c2ccc(O)cc2O)Oc2cc(O)cc(O)c21 (stereo not shown) [Steppogenin],> 80
7,CC(C)=CCc1c(O)cc(O)c2c1O[C@H](c1ccc(O)cc1O)CC2=O [Leachianone G],> 80
8,CC(C)=CCc1c(O)cc2occ(-c3ccc(O)cc3)c(=O)c2c1O [Wighteone],> 80
9,"CC(C)=CCC/C(C)=C/Cc1cc(-c2cc(=O)c3c(O)cc(O)cc3o2)c(O)cc1O [5′-Geranyl-5,7,2′,4′-tetrahydroxyflavone]",> 80
10,CC(C)=CCc1c(O)cc2c(c1O)C(=O)C[C@@H](c1ccc(O)cc1O)O2 [Cudraflavanone B],> 80
11,"COc1ccc2c(c1CC=C(C)C)O[C@H](c1ccc(O)cc1O)CC2 (stereo in doubt) [2′,4′-Dihydroxy-7-methoxy-8-prenylflavan]",> 80
12,CC(C)=CCc1c(O)ccc2c1O[C@H]1c3ccc(O)cc3OC[C@@H]21 [Phaseollidin],> 80
13,CC(C)=CCc1c(O)cc2occ(-c3ccc4c(c3)C=CC(C)(C)O4)c(=O)c2c1O [Isochandalone],> 80
14,C=C(C)[C@H](CC=C(C)C)Cc1c(O)cc(O)c2c1OC(c1cc3c(cc1O)O[C@@H](c1ccc(O)cc1)[C@@H]3c1cc(O)cc(O)c1)CC2=O (stereo partly shown) [Sophoraflavanone I],10 to 80
15,CC(C)=CCc1c([C@H]2CCc3ccc(O)cc3O2)ccc(O)c1O [Kazinol U],> 80
16,CC(C)=CCc1cc(-c2oc3cc(O)c(CC=C(C)C)c(O)c3c(=O)c2O)cc(O)c1O [broussonol E],> 80
17,CC(C)=CCc1c(O)cc2c(c1O)C(=O)[C@@]1(O)c3ccc(O)cc3O[C@H]1O2 [Lupinol C],> 80
18,"COc1cc(O)c(CC=C(C)C)c2c1C(=O)[C@H](O)[C@@H](c1ccc(O)cc1)O2 (stereo in doubt) [3,7,4′-Trihydroxy-5-methoxy-8-prenylflavanone]",> 80
19,COc1c(O)cc2oc(-c3cc(CC=C(C)C)c(O)c(CCC(C)CO)c3)c(OC)c(=O)c2c1O (stereo not shown) [5′-Prenylaliarin],> 80
20,C=C(C)[C@H](CC=C(C)C)Cc1c(O)c(CC=C(C)C)c(O)c2c1O[C@H](c1ccc(O)cc1O)CC2=O [Kushenol B],> 80
